This note sets out measurements from US20240269304A1, “BCL-XL INHIBITOR ANTIBODY-DRUG CONJUGATES AND METHODS OF USE THEREOF” (Novartis AG, priority 2020, published 2024).

SMILES strings stand for the structures. pIC50: −log10 of the molar value. Like-named read-outs stand apart in the source and are kept apart here.

In general, GI50 refers to the concentration at which growth is held to half of that of the control. Broadly, the IC50 is the concentration that inhibits the measured activity by half. The pIC50 is −log10 of the IC50, conventionally taken in molar units.

Common to all, as to type: cell-based
The subject of experiment [1] is ncih211. The experiment is described as follows: In vitro ADC activity with combination partners, CellTiter-Glo 5 days, ncih211 (Example 13). The conditions noted are these: single agent. Here is the method:
(§1) Antibody drug conjugates (ADCs) targeting IgG, B7H3, CD56, DLK1, DLL3, EpCAM, and SEZ6 were tested against cancer cell lines obtained from ATCC (American Type Culture Collection) or from other commercial cell line vendors (cor1279, ncih1436, ncih146, ncih211, ncih524). The cells were cultured in media that is optimal for their growth at 5% CO2, 37° C. in a tissue culture incubator. Prior to seeding for the proliferation assay, the cells were split at least 2 days before the assay to ensure optimal growth density. On the day of seeding, cells were lifted off tissue culture flasks using 0.25% trypsin. Cell viability and cell density were determined using a cell counter (Vi-Cell XR Cell Viability Analyzer, Beckman Coulter). Cells with higher than 85% viability were seeded in white clear bottom 384-well plates (Greiner cat #781098) at a density of 1000 cells per well in 50 μL of standard growth media. Plates were incubated at 37° C. overnight in a tissue culture incubator.
(§2) The ADCs were prepared in standard phosphate buffered solution to desired concentrations. A series of 10 dilutions were made for each ADC. The prepared drug treatments were then added to the cells resulting in final concentrations of 300 nM to 0.015 nM. Combination partners (Venetoclax and Topotecan) were added at fixed concentrations. Acoustic transfer devices (Echo525, Echo550, Beckman Coulter) were used to add the ADCs or combination partners to the cells. Each treatment was tested in triplicate assay plates. Plates were incubated at 37° C. overnight or for 5 days in a tissue culture incubator. The ability of the ADCs to inhibit cell proliferation and survival was assessed using the Promega CellTiter-Glo® proliferation assay. Plates were incubated at room temperature for 20 minutes to stabilize luminescent signals prior to reading using a multimode plate reader (Pherastar, BMG). Luminescent counts of untreated cells were taken the day after seeding (Day 0 readings), and after 5 days of treatment (Day 5 readings). The Day 5 readings of the untreated cells were compared to the Day 0 readings. Assays with at least one cell doubling during the incubation period were considered valid. To evaluate the effect of the drug treatments, luminescent counts from wells containing untreated cells (100% viability) were used to normalize treated samples. The concentrations of treatment required to inhibit 50% of cell growth or survival ([…]) were calculated using a four parameter logistic regression equation.
A general note: Cellular ATP, detected with luciferase, serves as a proxy for viable cell number.

The subject of experiment [2] is ALL-SIL cells. The experiment is described as follows: CellTiterGlo (CTG) cell viability, 72 h, ALL-SIL (Example 8). The gist of the method:
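In RPMI with 20% FBS, ALL-SIL cells were exposed for 72 h to serially diluted payloads or ADCs (9 concentrations, triplicate) at 37 °C/5% CO2. Viability was measured as cellular ATP by CellTiterGlo luminescence, with IC50 from four-parameter fit.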

Experiment [3] concerns ALL-SILL (T-ALL). The experiment is described as follows: CellTiter-Glo viability 72 h, single agent or 1/1 combination, ALL-SIL (Example 9). The conditions noted are these: single agent or 1/1 combination as labelled. As for the experimental part: Cell lines were cultured in the media described above at 37° C. in a humidified atmosphere containing 5% CO2. […] Effects of payloads or ADCs on cell viability were assessed after 3 days of incubation at 37° C./5% CO2 by quantification of cellular ATP levels using CellTiter-Glo reagent (Promega Ref: G7571) at 75 μL reagent/well. All the conditions were tested in triplicates. Luminescence was quantified on a multipurpose plate reader. IC50s were calculated using standard four-parametric curve fitting.

For experiment [4], the system named is LOUCY (T-ALL). The experiment is described as follows: CellTiter-Glo viability 72 h, single agent or 1/1 combination, LOUCY (Example 9). The conditions noted are these: single agent or 1/1 combination as labelled. As for the experimental part: Cell lines were cultured in the media described above at 37° C. in a humidified atmosphere containing 5% CO2. Cells were seeded in 96 well clear bottom plates (96 well clear-bottom, white, Corning reference 3903) and exposed to the payloads or ADCs at single agents or in 1/1 combinations with vincristine, ABT-199 or compound A2 for 72 h (serially diluted; 9 concentrations each, triplicates). Effects of payloads or ADCs on cell viability were assessed after 3 days of incubation at 37° C./5% CO2 by quantification of cellular ATP levels using CellTiter-Glo reagent (Promega Ref: G7571) at 75 μL reagent/well. All the conditions were tested in triplicates. Luminescence was quantified on a multipurpose plate reader. IC50s were calculated using standard four-parametric curve fitting. […] Each experiment was performed at least twice, with results being reproducible.

The test system of experiment [5] is ncih524. The experiment is described as follows: In vitro ADC activity with combination partners, CellTiter-Glo 5 days, ncih524 (Example 13). The conditions noted are these: single agent. As for the experimental part:
as §1, §2

For `Cc1c(Nc2nc3ccccc3s2)nnc2c1CCCN2c1ccc(-c2cnn(C[C@]34C[C@]5(C)C[C@](C)(C3)C[C@@](OCCN3CCCC3)(C5)C4)c2C)c(C(=O)O)n1` [P21, 6-[3-(1,3-benzothiazol-2-ylamino)-4-methyl-6,7-dihydro-5H-pyrido[2,3-c]pyridazin-8-yl]-3-[1-[[3,5-dimethyl-7-(2-pyrrolidin-1-ylethoxy)-1-adamantyl]methyl]-5-methyl-pyrazol-4-yl]pyridine-2-carboxylic acid], the GI50 in experiment [1] (Homo sapiens, NCI-H211, 120 h) stood at 0.000508 µM; in experiment [5] (Homo sapiens, NCI-H524, 120 h), 0.000508 µM. The “GI Amax ncih211” value in experiment [1] is recorded as −97.26. For the same compound, the IC50 in experiment [2] (experiment n1, read-out: ALLSIL CTG 72 h IC50 nM n1) came to 0.02 nM; in experiment [2] (experiment n2, read-out: ALLSIL CTG 72 h IC50 nM n2) it was 0.05 nM; in experiment [2] (mean of n1 and n2, read-out: ALLSIL CTG 72 h IC50 nM Mean of n1 and n2) it was 0.04 nM. Further, the pIC50 in experiment [3] (mean, read-out: ALL-SILL (T-ALL) IC50 mean) is 9.20; in experiment [3] (n1, read-out: ALL-SILL (T-ALL) IC50 n1), 9.40; in experiment [3] (n2, read-out: ALL-SILL (T-ALL) IC50 n2) it was 9.07; in experiment [4] (mean, read-out: LOUCY (T-ALL) IC50 mean) it was 9.14; in experiment [4] (n1, read-out: LOUCY (T-ALL) IC50 n1) it was 9.14. The “GI Amax ncih524” value in experiment [5] was −97.52.
